Measurements as given in patent US9481670B2, “Triazine compounds” (Sphaera Pharma PTE. Ltd., priority 2011, dated 2016).

biological target: T1, PI3K alpha (Homo sapiens, UniProt P42336); assay: P110 Alpha TR-FRET Assay (PI3K alpha kinase assay, HTRF Transcreener ADP Assay); assay type: biochemical; details: PI3K (WT)
T1 construct: purchased Millipore Upstate
Protocol: PI3K alpha kinase assay may be done using HTRF Transcreener ADP Assay (Cisbio).
Composition of the reaction buffer was as follows 50 mM HEPES, pH 7.5, 5 mM MgCl2, 1 mM DTT, 30 μM Na3VO4. PI3 Kinase was procured from Millipore Upstate. […] ATP was used at final concentration of 10 μM. Corning 384 well white plates were used for the assay.
2 μl of diluted enzyme (50 ng), 3 μl of diluted compound and 5 μl of buffer were added, mixed then incubated for 20 minutes with shaking at 400 rpm. 3 μl of substrate (10 μM of ATP and 5 μM PIP2) were added to initiate the reaction. The samples were incubated for 20 min. At the end of the reaction time 10 μl of the Detection mix (5 μl of ADP-D2 and 5 μl of Anti-ADP-Cryptate) was added and the contents were incubated for 1 h. The reaction plate was directly read in an Envision Multilabel Plate Reader.

T1 sequence (P42336 whole entry): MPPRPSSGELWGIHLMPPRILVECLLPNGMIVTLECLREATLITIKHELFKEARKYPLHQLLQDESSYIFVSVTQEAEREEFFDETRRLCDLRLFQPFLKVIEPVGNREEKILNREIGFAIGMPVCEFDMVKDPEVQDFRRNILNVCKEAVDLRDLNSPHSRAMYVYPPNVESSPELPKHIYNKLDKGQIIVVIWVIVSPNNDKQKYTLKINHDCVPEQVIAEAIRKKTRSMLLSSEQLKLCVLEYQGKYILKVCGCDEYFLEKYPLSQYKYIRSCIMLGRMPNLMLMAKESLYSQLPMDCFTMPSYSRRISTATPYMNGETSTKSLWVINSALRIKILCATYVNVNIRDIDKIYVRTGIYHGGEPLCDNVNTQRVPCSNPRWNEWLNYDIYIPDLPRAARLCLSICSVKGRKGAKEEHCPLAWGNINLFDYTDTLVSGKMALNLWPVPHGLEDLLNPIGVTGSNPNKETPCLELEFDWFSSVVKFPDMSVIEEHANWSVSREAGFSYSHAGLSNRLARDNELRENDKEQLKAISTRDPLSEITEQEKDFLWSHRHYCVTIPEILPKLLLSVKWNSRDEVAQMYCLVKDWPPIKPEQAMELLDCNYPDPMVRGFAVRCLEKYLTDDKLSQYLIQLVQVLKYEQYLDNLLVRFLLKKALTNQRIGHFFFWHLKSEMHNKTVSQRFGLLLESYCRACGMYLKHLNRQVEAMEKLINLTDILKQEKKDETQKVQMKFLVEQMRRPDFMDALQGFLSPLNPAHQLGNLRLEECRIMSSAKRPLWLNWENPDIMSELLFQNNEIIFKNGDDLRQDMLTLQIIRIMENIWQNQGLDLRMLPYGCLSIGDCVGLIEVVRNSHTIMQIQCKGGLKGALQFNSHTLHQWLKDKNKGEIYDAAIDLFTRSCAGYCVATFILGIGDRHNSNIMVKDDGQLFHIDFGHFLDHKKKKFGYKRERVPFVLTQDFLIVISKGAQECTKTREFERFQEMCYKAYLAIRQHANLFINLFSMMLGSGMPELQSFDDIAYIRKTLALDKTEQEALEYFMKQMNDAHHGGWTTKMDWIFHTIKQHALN
T1 sequence (P27986 whole entry partner): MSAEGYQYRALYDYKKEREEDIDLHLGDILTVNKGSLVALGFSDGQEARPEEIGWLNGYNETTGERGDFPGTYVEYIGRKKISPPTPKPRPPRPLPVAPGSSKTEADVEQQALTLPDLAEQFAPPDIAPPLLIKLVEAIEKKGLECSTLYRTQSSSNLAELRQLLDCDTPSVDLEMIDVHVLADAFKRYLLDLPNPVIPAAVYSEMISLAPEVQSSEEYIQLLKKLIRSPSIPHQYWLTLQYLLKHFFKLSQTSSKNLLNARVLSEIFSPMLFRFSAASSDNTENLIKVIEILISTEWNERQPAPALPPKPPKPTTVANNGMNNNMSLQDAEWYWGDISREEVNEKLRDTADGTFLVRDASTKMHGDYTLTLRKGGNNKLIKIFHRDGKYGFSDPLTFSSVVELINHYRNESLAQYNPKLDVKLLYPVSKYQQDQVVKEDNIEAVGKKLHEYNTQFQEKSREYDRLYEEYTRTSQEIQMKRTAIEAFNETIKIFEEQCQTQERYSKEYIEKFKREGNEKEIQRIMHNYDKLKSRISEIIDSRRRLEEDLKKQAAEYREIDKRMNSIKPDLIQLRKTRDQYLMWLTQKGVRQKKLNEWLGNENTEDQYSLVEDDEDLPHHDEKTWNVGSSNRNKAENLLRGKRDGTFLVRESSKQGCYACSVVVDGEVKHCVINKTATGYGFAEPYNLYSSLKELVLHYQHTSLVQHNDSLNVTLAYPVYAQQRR

`CN(C)C(=O)N1CCN(Cc2nc(-c3ccc(N)nc3)nc(N3CCOCC3)n2)CC1` [Compound 1049, 4-((4-(6-aminopyridin-3-yl)-6-morpholino-1,3,5-triazin-2-yl)methyl)-N,N-dimethylpiperazine-1-carboxamide] and `CN(C)C(=O)N1CCC(Oc2nc(-c3ccc(N)nc3)nc(N3CCOCC3)n2)CC1` [Compound 1028, 4-20-{[4-1-(6-11-aminopyridin-3-yl)-6-5-(morpholin-4-yl)-1,3,5-triazin-2-yl]oxy}-N,N-dimethylpiperidine-1-carboxamide] cannot be ordered by IC50: under 5 µM for the first, under 5 µM for the second.

`Nc1ccc(-c2nc(SCc3ccccc3)nc(N3CCOCC3)n2)cn1` [Compound 1037, 5-(4-(benzylthio)-6-morpholino-1,3,5-triazin-2-yl)pyridin-2-amine] and `CN(C)C(=O)c1cccc(Nc2nc(-c3ccc(N)nc3)nc(N3CCOCC3)n2)c1` [Compound 1060, 3-((4-(6-aminopyridin-3-yl)-6-morpholino-1,3,5-triazin-2-yl)amino)-N,N-dimethylbenzamide] cannot be ordered by IC50: under 5 µM for the first, under 5 µM for the second.

`CN(C)C(=O)N1CCCC(Oc2nc(-c3cccc4[nH]ncc34)nc(N3CCOCC3)n2)CC1` (centres unmarked) [Compound 1087, 4-14-{[4-1-(1H-indazol-4-yl)-6-5-(morpholin-4-yl)-1,3,5-triazin-2-yl]oxy}-N,N-dimethylazepane-1-carboxamide] and `CS(=O)(=O)N1CCC(Oc2nc(-c3cccc4[nH]ncc34)nc(N3CCOCC3)n2)CC1` [Compound 1102, 4-7-{4-3-[(1-25-methanesulfonylpiperidin-4-yl)oxy]-6-5-(morpholin-4-yl)-1,3,5-triazin-2-yl}-1H-indazole] cannot be ordered by IC50: under 5 µM for the first, under 5 µM for the second.

`CNC(=O)C(=O)N[C@H]1CC[C@H](Oc2nc(-c3cccc4[nH]ncc34)nc(N3CCOCC3)n2)CC1` [Compound 1124, N-methyl-N′-[(1r,4r)-4-9-{[4-1-(1H-indazol-4-yl)-6-5-(morpholin-4-yl)-1,3,5-triazin-2-yl]oxy}cyclohexyl]ethanediamide] and `CNC(=O)[C@H]1CC[C@H](Oc2nc(-c3cccc4[nH]ncc34)nc(N3CCOCC3)n2)CC1` [Compound 1142, (1r,4r)-4-21-{[4-1-(1H-indazol-4-yl)-6-5-(morpholin-4-yl)-1,3,5-triazin-2-yl]oxy}-N-methylcyclohexane-1-carboxamide] cannot be ordered by IC50: under 5 µM for the first, under 5 µM for the second.

`CN(c1cccc(C(N)=O)c1)c1nc(-c2cccc3[nH]ncc23)nc(N2CCOCC2)n1` [Compound 1200, 3-((4-(1H-indazol-4-yl)-6-morpholino-1,3,5-triazin-2-yl)(methyl)amino)benzamide] and `O=C(O)CCNc1nc(-c2cccc3[nH]ncc23)nc(N2CCOCC2)n1` [Compound 1227, 3-((4-(1H-indazol-4-yl)-6-morpholino-1,3,5-triazin-2-yl)amino)propanoic acid] cannot be ordered by IC50: under 5 µM for the first, under 5 µM for the second.

`O=C(O)CNc1nc(-c2cccc(NO)c2)nc(N2CCOCC2)n1` [Compound 1184, 2-((4-(3-(hydroxyamino)phenyl)-6-morpholino-1,3,5-triazin-2-yl)amino)acetic acid] and `CS(=O)(=O)Nc1cccc(-c2nc(NCC(=O)O)nc(N3CCOCC3)n2)c1` [Compound 1146, 2-((4-(3-(methylsulfonamido)phenyl)-6-morpholino-1,3,5-triazin-2-yl)amino)acetic acid] cannot be ordered by IC50: over 5 µM for the first, over 5 µM for the second.

`CN(C)C(=O)c1ccc(Oc2nc(-c3ccc(N)nc3)nc(N3CCCOCC3)n2)cc1` [Compound 1014, 4-21-{[4-1-(6-9-aminopyridin-3-yl)-6-5-(1,4-oxazepan-4-yl)-1,3,5-triazin-2-yl]oxy}-N,N-dimethylbenzamide] and `CN(C)C(=O)c1ccc(Oc2nc(-c3ccnc4[nH]ccc34)nc(N3CCOCC3)n2)cc1` [Compound 1058, N,N-dimethyl-4-14-{[4-5-(morpholin-4-yl)-6-1-{1H-pyrrolo[2,3-b]pyridin-4-yl}-1,3,5-triazin-2-yl]oxy}benzamide] cannot be ordered by IC50: under 5 µM for the first, under 5 µM for the second.

`CN(CC(=O)O)c1nc(-c2cccc(O)c2)nc(N2CCOCC2)n1` [Compound 1192, 2-((4-(3-hydroxyphenyl)-6-morpholino-1,3,5-triazin-2-yl)(methyl)amino)acetic acid] and `CN(C)C(=O)CNc1nc(-c2cccc(O)c2)nc(N2CCOCC2)n1` [Compound 1167, 2-((4-(3-hydroxyphenyl)-6-morpholino-1,3,5-triazin-2-yl)amino)-N,N-dimethylacetamide] cannot be ordered by IC50: under 5 µM for the first, under 5 µM for the second.

`COC(=O)C1CCN(c2nc(-c3cccc4[nH]ncc34)nc(N3CCOCC3)n2)C1` (centres unmarked) [Compound 1207, methyl 1-12-[4-1-(1H-indazol-4-yl)-6-5-(morpholin-4-yl)-1,3,5-triazin-2-yl]pyrrolidine-3-carboxylate] and `CCOc1ccc(NC(=O)C2CCN(c3nc(-c4cccc5[nH]ncc45)nc(N4CCOCC4)n3)C2)cc1` (centres unmarked) [Compound 1174, N-(4-23-ethoxyphenyl)-1-12-[4-1-(1H-indazol-4-yl)-6-5-(morpholin-4-yl)-1,3,5-triazin-2-yl]pyrrolidine-3-carboxamide] cannot be ordered by IC50: under 5 µM for the first, under 5 µM for the second.

Going from `CC(=O)Nc1cccc(-c2nc(N3CCOCC3)nc(N(CC(=O)O)C(C)=O)n2)c1` [Compound 1121, 2-9-{N-[4-1-(3-14-acetamidophenyl)-6-5-(morpholin-4-yl)-1,3,5-triazin-2-yl]acetamido}acetic acid] to `O=C(O)C(Cc1ccccc1)Nc1nc(-c2cccc(O)c2)nc(N2CCOCC2)n1` (centres unmarked) [Compound 1118, 2-((4-(3-hydroxyphenyl)-6-morpholino-1,3,5-triazin-2-yl)amino)-3-phenylpropanoic acid], the IC50 falls from over 5 µM to under 5 µM.

`CC1COCC(C)N1c1nc(Oc2ccc(C(=O)N(C)C)cc2)nc(-c2cccc3[nH]ncc23)n1` (centres unmarked) [Compound 1097, 4-9-{[4-5-(3-28,5-32-dimethylmorpholin-4-yl)-6-1-(1H-indazol-4-yl)-1,3,5-triazin-2-yl]oxy}-N,N-dimethylbenzamide] and `CN(C)C(=O)NC(C)(C)COc1nc(-c2cccc3[nH]ncc23)nc(N2CCOCC2)n1` [Compound 1147, 1-(1-14-{[4-1-(1H-indazol-4-yl)-6-5-(morpholin-4-yl)-1,3,5-triazin-2-yl]oxy}-2-15-methylpropan-2-yl)-3,3-dimethylurea] cannot be ordered by IC50: under 5 µM for the first, under 5 µM for the second.

`CC(Nc1nc(-c2cccc(O)c2)nc(N2CCOCC2)n1)C(=O)N1CCN(S(C)(=O)=O)CC1` (centres unmarked) [Compound 1076, 2-((4-(3-hydroxyphenyl)-6-morpholino-1,3,5-triazin-2-yl)amino)-1-(4-(methylsulfonyl)piperazin-1-yl)propan-1-one] and `C[C@H](Nc1nc(-c2ccc(N)nc2)nc(N2CCOCC2)n1)C(=O)N(C)C` [Compound 1165, 2-((4-(6-aminopyridin-3-yl)-6-morpholino-1,3,5-triazin-2-yl)amino)-N,N-dimethylpropanamide] cannot be ordered by IC50: under 5 µM for the first, under 5 µM for the second.

`Nc1ncc(-c2nc(N3CCOCC3)nc(N3CCNC(=O)CC3)n2)cn1` [Compound 1051, 1-6-[4-1-(2-22-aminopyrimidin-5-yl)-6-5-(morpholin-4-yl)-1,3,5-triazin-2-yl]-1,4-diazepan-5-one] and `CS(=O)(=O)N1CCC(COc2nc(-c3cnc(N)nc3)nc(N3CCOCC3)n2)CC1` [Compound 1005, 5-(4-((1-(methylsulfonyl)piperidin-4-yl)methoxy)-6-morpholino-1,3,5-triazin-2-yl)pyrimidin-2-amine] cannot be ordered by IC50: under 5 µM for the first, under 5 µM for the second.
